Results from patent US20080226565A1, “Anticariogenic Proteins & Peptides & Saccharides” (priority 2004, published 2008).

Tests used:
[1] = system: aerobes isolated from the oral cavity; assay: Susceptibility (MIC), agar dilution, aerobes from the oral cavity; assay type: cell-based, aerobic bacteria; conditions: explored range 0.2 to 3.5 mg/ml
Procedure: (§1) The investigations included more than hundred strains isolated from the oral cavity: : anaerobes, microaerophilic bacteria, aerobes, Streptococcus spp. and yeast like fungi. The microorganisms were isolated from saliva, mucosal membrane, gingival pockets and caries decay. The susceptibility (MIC) of bacteria and yeastlike fungi were determined by means of plate dilution technique in agar.
(§2) The investigated samples were dissolved in sterile distilled water (immediately before the experiment) to obtain the following concentrations: 3.5, 1.7, 0.8, 0.4 and 0.2 mg/ml and were added into appropriate agar. The plates were inoculated using a Steers multipoint inoculator. Inoculum contained 10^6 CFU/spot. In each experimental series, the growth of strains on the culture medium without the compounds investigated was checked. The concentration at which no macroscopic growth of the microbes was observed on the medium was regarded as the lowest concentration, inhibiting the growth of microbes (MIC). The examinations of the susceptibility of microbes to the peptides were carried out twice.
Anaerobes. The susceptibility of bacteria was determined by means of the agar dilution methods with Brucella agar supplemented with 5% defibrinated sheep's blood, menadione and hemin. Sample solutions with concentrations from of 3.5-0.2 mg/ml were added into agar. The agar plate without investigated samples was included as a bacterial growth control. The inoculum of 10^6 CFU/ml was applied to the agar plates with Steers replicator. Incubation was performed for 48 hrs at 37° C. (310° K) in anaerobic jars containing a mixture of 10% CO2, 10% H2 and 80% N2, in the presence of palladium catalyst and indicator of anaerobiosis. Microaerophilic bacteria. The susceptibility of bacteria was determined by means of the agar dilution methods with Brucella agar supplemented with 5% sheep's blood. Samples solutions with concentrations from of 3.5- 0.2 mg/ml were added into agar. The agar plate without investigated samples was included as a bacterial growth control. The inoculum of 10^6 CFU/ml was applied to the agar plates with Steers replicator. The incubation was performed at 37° C. in anaerobic jars with Campy Pak (bio Merieux) for 48 hours. Streptococcus spp. The susceptibility of bacteria was determined by means of the agar dilution methods with Mueller-Hinton agar supplemented with 5% sheep's blood. Samples solutions with concentrations from of 3.5- 0.2 mg/ml were added into agar. The agar plate without investigated samples was included as a bacterial growth control. […] The susceptibility to investigated samples was determined by means of the plate dilution technique in Mueller-Hinton agar. […] The susceptibility of fungi to investigated samples was determined by means of the plate dilution technique in Sabouraud's agar. […]

[2] = system: anaerobes isolated from the oral cavity; assay: Susceptibility (MIC), agar dilution, anaerobes from the oral cavity; assay type: cell-based, anaerobic bacteria; conditions: explored range 0.2 to 3.5 mg/ml
Procedure: as §1, §2
Anaerobes. The susceptibility of bacteria was determined by means of the agar dilution methods with Brucella agar supplemented with 5% defibrinated sheep's blood, menadione and hemin. Sample solutions with concentrations from of 3.5-0.2 mg/ml were added into agar. The agar plate without investigated samples was included as a bacterial growth control. The inoculum of 10^6 CFU/ml was applied to the agar plates with Steers replicator. Incubation was performed for 48 hrs at 37° C. (310° K) in anaerobic jars containing a mixture of 10% CO2, 10% H2 and 80% N2, in the presence of palladium catalyst and indicator of anaerobiosis. Microaerophilic bacteria. The susceptibility of bacteria was determined by means of the agar dilution methods with Brucella agar supplemented with 5% sheep's blood. Samples solutions with concentrations from of 3.5- 0.2 mg/ml were added into agar. The agar plate without investigated samples was included as a bacterial growth control. The inoculum of 10^6 CFU/ml was applied to the agar plates with Steers replicator. The incubation was performed at 37° C. in anaerobic jars with Campy Pak (bio Merieux) for 48 hours. Streptococcus spp. The susceptibility of bacteria was determined by means of the agar dilution methods with Mueller-Hinton agar supplemented with 5% sheep's blood. Samples solutions with concentrations from of 3.5- 0.2 mg/ml were added into agar. The agar plate without investigated samples was included as a bacterial growth control. The inoculum of 10^6 CFU/ml was applied to the agar plates with Steers replicator. Incubation was performed for 24 hrs at 37° C. (310° K) in anaerobic jars containing a mixture of 10% CO2 and 90% N2. Aerobes. The susceptibility to investigated samples was determined by means of the plate dilution technique in Mueller-Hinton agar. Samples solutions with concentrations from of 3.5- 0.2 mg/ml were added into agar. The agar plate without investigated samples was included as a bacterial growth control. The inoculum of 10^6 CFU/ml was applied to the agar plates with Steers replicator. Plates were incubated for 24 hrs in 37° C. under aerobic conditions. Yeast like fungi. The susceptibility of fungi to investigated samples was determined by means of the plate dilution technique in Sabouraud's agar. Samples solutions with concentrations from of 3.5- 0.2 mg/ml were added into agar. […]

Solubility in water = assay type: physicochemical

With “3-hydroxyphthalated e-polylysine [Product 27]” the activity against aerobes [1] was “not active”, the activity against anaerobes [2] was “less effective” and the “pH at which soluble in water” value (Solubility in water) was “above 9”.
